Assays:
[1] = molecular target: T1, Phosphatidylinositol 4,5-bisphosphate 3-kinase catalytic subunit delta isoform (Homo sapiens, UniProt O00329); experiment: Inhibition of PI3Kdelta in human Ramos cells assessed as reduction in anti-IgM-antibody-induced phosphorylation of AKT at Ser473 residue preincubated for 20 mins followed by anti-IgM antibody stimulation and measured after 30 mins by alphascreen assay; type: cell-based
T1 sequence (O00329 whole entry): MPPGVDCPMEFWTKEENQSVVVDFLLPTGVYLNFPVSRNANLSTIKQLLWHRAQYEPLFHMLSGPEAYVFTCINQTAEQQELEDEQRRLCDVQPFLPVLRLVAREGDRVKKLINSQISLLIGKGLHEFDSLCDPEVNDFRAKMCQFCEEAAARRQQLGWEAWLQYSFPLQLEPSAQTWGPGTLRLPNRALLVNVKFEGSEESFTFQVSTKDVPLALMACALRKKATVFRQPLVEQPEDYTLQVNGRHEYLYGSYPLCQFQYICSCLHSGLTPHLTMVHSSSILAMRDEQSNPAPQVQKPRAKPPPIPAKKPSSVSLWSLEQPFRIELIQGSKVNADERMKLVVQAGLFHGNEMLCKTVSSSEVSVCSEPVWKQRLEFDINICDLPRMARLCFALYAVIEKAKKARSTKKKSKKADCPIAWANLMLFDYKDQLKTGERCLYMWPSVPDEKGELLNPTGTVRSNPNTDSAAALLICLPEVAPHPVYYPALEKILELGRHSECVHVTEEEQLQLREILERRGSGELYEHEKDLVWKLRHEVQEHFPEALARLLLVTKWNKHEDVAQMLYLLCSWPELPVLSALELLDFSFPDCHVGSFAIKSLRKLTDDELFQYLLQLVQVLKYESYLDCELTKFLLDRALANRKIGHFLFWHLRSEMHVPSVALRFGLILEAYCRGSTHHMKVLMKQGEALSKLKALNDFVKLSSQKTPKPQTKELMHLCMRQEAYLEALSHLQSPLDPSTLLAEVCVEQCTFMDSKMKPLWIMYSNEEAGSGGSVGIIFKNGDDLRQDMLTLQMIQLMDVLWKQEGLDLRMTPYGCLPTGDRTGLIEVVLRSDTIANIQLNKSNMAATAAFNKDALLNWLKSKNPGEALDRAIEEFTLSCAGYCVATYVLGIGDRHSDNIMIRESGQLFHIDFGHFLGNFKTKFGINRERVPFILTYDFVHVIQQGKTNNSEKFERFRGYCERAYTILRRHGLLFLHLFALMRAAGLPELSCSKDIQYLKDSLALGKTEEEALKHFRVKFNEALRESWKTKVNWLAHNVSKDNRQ

[2] = Inhibition of adenosine transporter in human HeLa cells assessed as reduction in [3H]adenosine uptake preincubated for 30 mins followed by [3H]adenosine addition and measured after 60 mins; type: ADME, cell-based
[3] = molecular target: PI3-kinase p110-alpha/p85-alpha (Homo sapiens, UniProt P42336); experiment: Inhibition of N-terminal His6-tagged recombinant full length human p110alpha/untagged recombinant full length human p85alpha expressed in baculovirus infected Sf21 insect cells using PIP2 as substrate preincubated for 15 mins followed by substrate addition and measured after 1 hr by HTRF assay
Sequence of PI3-kinase p110-alpha/p85-alpha (P27986 whole entry): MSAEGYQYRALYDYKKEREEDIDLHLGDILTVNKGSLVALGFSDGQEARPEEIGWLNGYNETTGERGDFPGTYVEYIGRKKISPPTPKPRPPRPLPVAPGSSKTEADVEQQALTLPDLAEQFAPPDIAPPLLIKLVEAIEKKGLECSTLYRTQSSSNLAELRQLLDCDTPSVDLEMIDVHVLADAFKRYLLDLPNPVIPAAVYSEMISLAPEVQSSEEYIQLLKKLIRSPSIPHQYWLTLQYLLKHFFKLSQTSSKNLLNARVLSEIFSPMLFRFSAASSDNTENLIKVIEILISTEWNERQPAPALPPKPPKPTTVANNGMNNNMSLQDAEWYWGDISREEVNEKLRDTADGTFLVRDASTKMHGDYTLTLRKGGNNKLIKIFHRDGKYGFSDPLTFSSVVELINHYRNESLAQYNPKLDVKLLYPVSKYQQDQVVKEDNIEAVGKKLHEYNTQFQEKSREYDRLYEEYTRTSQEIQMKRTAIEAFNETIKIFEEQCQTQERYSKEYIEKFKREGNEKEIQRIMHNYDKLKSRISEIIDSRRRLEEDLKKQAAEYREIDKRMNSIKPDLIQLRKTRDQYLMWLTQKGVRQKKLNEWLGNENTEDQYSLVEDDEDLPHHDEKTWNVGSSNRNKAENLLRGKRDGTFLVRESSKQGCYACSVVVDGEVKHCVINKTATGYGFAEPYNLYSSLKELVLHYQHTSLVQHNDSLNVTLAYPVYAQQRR
Sequence of PI3-kinase p110-alpha/p85-alpha (P42336 whole entry): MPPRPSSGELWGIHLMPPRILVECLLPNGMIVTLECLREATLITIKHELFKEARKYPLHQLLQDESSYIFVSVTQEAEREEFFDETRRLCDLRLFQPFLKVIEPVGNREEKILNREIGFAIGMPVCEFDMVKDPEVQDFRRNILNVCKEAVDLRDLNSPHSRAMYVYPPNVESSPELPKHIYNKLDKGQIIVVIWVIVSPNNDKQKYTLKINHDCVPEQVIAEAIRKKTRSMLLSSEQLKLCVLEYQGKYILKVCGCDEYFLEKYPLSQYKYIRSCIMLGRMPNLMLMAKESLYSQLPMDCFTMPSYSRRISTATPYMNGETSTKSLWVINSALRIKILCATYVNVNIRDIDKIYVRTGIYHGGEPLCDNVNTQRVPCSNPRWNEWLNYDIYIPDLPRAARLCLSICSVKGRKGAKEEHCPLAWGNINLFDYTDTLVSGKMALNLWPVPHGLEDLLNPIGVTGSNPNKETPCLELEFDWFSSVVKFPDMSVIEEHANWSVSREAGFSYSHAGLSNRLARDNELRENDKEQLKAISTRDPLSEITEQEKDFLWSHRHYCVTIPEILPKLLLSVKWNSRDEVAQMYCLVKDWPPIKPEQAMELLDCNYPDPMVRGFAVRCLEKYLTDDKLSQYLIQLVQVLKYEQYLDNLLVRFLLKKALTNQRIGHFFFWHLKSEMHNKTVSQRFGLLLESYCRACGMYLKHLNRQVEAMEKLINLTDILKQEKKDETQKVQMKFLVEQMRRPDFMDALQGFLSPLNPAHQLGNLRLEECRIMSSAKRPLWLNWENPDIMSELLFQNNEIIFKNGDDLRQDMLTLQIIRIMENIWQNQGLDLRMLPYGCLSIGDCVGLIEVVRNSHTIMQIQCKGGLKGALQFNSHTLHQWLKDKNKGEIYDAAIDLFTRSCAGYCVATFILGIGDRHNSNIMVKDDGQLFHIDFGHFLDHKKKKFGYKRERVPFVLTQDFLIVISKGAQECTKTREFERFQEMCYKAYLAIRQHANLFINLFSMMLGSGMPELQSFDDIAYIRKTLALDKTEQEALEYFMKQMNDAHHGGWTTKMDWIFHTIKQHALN

[4] = molecular target: PI3-kinase p110-delta/p85-alpha (Homo sapiens, UniProt O00329); experiment: Inhibition of N-terminal His6-tagged recombinant full length human p110delta/untagged recombinant full length human p85alpha expressed in baculovirus infected Sf21 insect cells using PIP2 as substrate preincubated for 15 mins followed by substrate addition and measured after 1 hr by HTRF assay
Sequence of PI3-kinase p110-delta/p85-alpha (P27986 whole entry, one chain of several): as the sequence (P27986 whole entry) above

[5] = Intrinsic clearance in Beagle dog at 0.05 mg/kg; type: ADME, organism-based, Canis lupus familiaris; details: in vivo
[6] = Half-life in Beagle dog; type: ADME, Canis lupus familiaris; details: in vivo
[7] = Half-life in Wistar Han rat; type: ADME; details: in vivo
[8] = Volume of distribution in Wistar Han rat; type: ADME; details: in vivo
[9] = Plasma clearance in Beagle dog at 0.05 mg/kg; type: ADME, organism-based, Canis lupus familiaris
[10] = Unbound volume of distribution in Wistar Han rat; type: ADME; details: in vivo
[11] = Intrinsic clearance in Wistar Han rat at 0.05 mg/kg; type: ADME, organism-based; details: in vivo
[12] = Protein binding in Wistar Han rat plasma; type: ADME, cell-free; details: read-out: PPB (converted)
[13] = Protein binding in Beagle dog plasma; type: ADME, cell-free, Canis lupus familiaris; details: read-out: PPB (converted)
[14] = Unbound volume of distribution in Beagle dog; type: ADME, Canis lupus familiaris; details: in vivo
[15] = Lipophilicity, log D of the compound; type: physicochemical; details: octanol/water
[16] = Volume of distribution in Beagle dog; type: ADME, Canis lupus familiaris; details: in vivo
[17] = Plasma clearance in Wistar Han rat at 0.05 mg/kg; type: ADME, organism-based
[18] = Plasma clearance in Wistar Han rat at 0.5 mg/kg, iv or 1 mg/kg, po; type: ADME, organism-based
[19] = Oral bioavailability in Wistar Han rat; type: ADME, organism-based; details: in vivo
[20] = Intrinsic clearance in Wistar Han rat at 0.5 mg/kg, iv or 1 mg/kg, po; type: ADME, organism-based; details: in vivo
Homo sapiens = organism: Homo sapiens; experiment: Selectivity ratio of IC50 for N-terminal His6-tagged recombinant full length human p110alpha/untagged recombinant full length human p85alpha expressed in baculovirus infected Sf21 insect cells to IC50 for N-terminal His6-tagged recombinant full length human p110delta/untagged recombinant full length human p85alpha expressed in baculovirus infected Sf21 insect cells
[21] = molecular target: Dual 3',5'-cyclic-AMP and -GMP phosphodiesterase 11A (Homo sapiens, UniProt Q9HCR9); experiment: Inhibition of PDE11 (unknown origin)
[22] = molecular target: High affinity cGMP-specific 3',5'-cyclic phosphodiesterase 9A (Homo sapiens, UniProt O76083); experiment: Inhibition of PDE9 (unknown origin)
Sequence of High affinity cGMP-specific 3',5'-cyclic phosphodiesterase 9A (O76083 whole entry): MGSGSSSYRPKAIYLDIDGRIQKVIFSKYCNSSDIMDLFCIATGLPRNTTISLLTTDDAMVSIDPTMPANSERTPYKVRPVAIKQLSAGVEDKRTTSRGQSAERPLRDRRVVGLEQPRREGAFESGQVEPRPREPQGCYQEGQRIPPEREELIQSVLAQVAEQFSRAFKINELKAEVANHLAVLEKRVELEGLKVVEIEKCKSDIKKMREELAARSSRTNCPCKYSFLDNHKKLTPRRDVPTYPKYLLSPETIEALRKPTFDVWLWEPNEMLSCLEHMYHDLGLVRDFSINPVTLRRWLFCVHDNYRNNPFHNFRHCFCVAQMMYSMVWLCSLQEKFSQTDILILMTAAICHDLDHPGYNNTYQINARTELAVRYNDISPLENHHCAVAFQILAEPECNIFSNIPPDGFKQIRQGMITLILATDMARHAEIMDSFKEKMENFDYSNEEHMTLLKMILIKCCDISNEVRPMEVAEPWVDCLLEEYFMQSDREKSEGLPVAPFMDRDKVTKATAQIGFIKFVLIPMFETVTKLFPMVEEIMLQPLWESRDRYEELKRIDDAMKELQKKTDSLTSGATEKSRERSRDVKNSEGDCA

Phosphodiesterase 4 = Phosphodiesterase 4 (Homo sapiens, UniProt P27815+Q08499+Q07343+Q08493); experiment: Inhibition of PDE4 (unknown origin); type: protein assay
Phosphodiesterase 6 = experiment: Inhibition of PDE6 (unknown origin); type: protein assay, Homo sapiens
[23] = molecular target: cAMP and cAMP-inhibited cGMP 3',5'-cyclic phosphodiesterase 10A (Homo sapiens, UniProt Q9Y233); experiment: Inhibition of PDE10 (unknown origin)
Sequence of cAMP and cAMP-inhibited cGMP 3',5'-cyclic phosphodiesterase 10A (Q9Y233 whole entry): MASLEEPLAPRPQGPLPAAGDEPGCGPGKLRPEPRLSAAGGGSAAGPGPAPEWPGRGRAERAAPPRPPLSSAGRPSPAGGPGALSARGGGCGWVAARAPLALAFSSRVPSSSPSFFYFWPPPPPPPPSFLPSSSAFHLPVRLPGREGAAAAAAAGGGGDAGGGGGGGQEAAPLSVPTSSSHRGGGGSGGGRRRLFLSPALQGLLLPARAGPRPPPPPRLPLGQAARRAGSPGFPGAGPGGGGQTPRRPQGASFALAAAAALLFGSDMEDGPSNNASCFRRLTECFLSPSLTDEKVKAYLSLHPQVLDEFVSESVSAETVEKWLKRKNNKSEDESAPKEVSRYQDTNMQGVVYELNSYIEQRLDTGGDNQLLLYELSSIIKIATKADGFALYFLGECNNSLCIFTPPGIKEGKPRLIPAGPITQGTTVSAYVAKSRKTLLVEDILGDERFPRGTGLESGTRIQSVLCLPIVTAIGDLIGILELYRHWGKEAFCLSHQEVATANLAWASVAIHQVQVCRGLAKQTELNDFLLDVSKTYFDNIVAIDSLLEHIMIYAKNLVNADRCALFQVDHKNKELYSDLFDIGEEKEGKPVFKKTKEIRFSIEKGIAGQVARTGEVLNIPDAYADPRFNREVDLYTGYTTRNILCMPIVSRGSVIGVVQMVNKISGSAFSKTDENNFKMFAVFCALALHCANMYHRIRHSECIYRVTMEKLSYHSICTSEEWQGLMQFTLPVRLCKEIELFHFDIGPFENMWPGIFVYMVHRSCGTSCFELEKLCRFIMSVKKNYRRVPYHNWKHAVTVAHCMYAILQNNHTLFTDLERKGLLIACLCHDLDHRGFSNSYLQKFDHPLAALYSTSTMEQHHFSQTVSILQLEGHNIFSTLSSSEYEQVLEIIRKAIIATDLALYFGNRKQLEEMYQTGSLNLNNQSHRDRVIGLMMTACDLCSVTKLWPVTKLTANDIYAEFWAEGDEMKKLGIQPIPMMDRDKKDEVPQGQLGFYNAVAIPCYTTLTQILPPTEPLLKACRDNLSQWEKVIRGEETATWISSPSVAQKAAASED

[24] = molecular target: cGMP-dependent 3',5'-cyclic phosphodiesterase (Homo sapiens, UniProt O00408); experiment: Inhibition of PDE2 (unknown origin)
[25] = molecular target: High affinity cAMP-specific and IBMX-insensitive 3',5'-cyclic phosphodiesterase 8A (Homo sapiens, UniProt O60658); experiment: Inhibition of PDE8 (unknown origin)
Sequence of High affinity cAMP-specific and IBMX-insensitive 3',5'-cyclic phosphodiesterase 8A (O60658 whole entry): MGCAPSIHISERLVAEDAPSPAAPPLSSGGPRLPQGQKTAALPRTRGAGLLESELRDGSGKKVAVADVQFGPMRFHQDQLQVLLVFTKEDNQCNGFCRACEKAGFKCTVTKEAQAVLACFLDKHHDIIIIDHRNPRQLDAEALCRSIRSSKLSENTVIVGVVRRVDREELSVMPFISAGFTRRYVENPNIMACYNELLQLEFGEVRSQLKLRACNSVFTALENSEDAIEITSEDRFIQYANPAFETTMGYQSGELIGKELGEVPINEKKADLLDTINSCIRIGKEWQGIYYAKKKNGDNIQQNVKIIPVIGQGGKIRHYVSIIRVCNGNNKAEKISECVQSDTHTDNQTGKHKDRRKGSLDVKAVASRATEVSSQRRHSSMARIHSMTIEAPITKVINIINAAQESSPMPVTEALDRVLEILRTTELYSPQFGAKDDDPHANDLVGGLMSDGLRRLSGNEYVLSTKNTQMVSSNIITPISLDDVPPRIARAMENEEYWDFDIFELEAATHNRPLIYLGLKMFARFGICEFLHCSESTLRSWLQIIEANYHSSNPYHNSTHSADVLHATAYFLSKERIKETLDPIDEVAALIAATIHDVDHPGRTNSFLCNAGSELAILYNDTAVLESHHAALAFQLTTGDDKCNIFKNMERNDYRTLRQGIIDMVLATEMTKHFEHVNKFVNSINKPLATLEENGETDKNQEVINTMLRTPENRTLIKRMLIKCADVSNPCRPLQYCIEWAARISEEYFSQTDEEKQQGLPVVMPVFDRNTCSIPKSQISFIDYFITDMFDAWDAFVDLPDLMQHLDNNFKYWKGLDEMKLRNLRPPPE

Phosphodiesterase 1 = Phosphodiesterase 1 (Homo sapiens, UniProt P54750+Q01064+Q14123); experiment: Inhibition of PDE1 (unknown origin); type: protein assay
Phosphodiesterase 3 = Phosphodiesterase 3 (Homo sapiens, UniProt Q14432+Q13370); experiment: Inhibition of PDE3 (unknown origin); type: protein assay
[26] = molecular target: cGMP-specific 3',5'-cyclic phosphodiesterase (Homo sapiens, UniProt O76074); experiment: Inhibition of PDE5 (unknown origin)
Phosphodiesterase 7 = Phosphodiesterase 7 (Homo sapiens, UniProt Q13946+Q9NP56); experiment: Inhibition of PDE7 (unknown origin); type: protein assay

| SMILES | IC50 [1] [µM] | IC50 [2] [µM] | IC50 [3] [µM] | IC50 [4] [µM] | half-life [7] [min] | Vd [8] [L/kg] | Vdu [10] [L/kg] | fraction unbound [12] | logD [15] | also measured |
| --- | --- | --- | --- | --- | --- | --- | --- | --- | --- | --- |
| CCn1ncc(-c2nc3c(N[C@@H](C)C(=O)N4CCOCC4)ncnc3n2C)c1C | 0.719 | 6.55 | 0.406 | 0.024 |  |  |  |  |  |  |
| CCn1ncc(-c2nc3c(N[C@H]4CC[C@@H](C(=O)N5CCOCC5)C4)ncnc3n2C)c1C | 0.153 | 5.52 | 0.09 | 0.011 |  |  |  |  |  |  |
| CC[C@H](Nc1ncnc2c1nc(-c1cnn(CC)c1C)n2C)C(=O)N1C[C@@H](C)O[C@@H](C)C1 |  | 3.13 | 0.262 |  | 18 | 1.1 | 3 | 0.42 | 1.7 | CL [5]: 25 mL/min/kg; half-life [6]: 72 min; clearance [9]: 7.9 mL/min/kg; CL [11]: 290 mL/min/kg; fraction unbound [13]: 0.42; Vdu [14]: 2 L/kg; Vd [16]: 0.9 L/kg; clearance [17]: 50 mL/min/kg |
| CCn1ncc(-c2nc3c(O[C@H]4CCN(C(=O)C5CC5)C4)ncnc3n2C)c1C | 0.19 | 7.48 | 0.169 | 0.0053 | 24 | 0.8 | 2 | 0.33 | 1.2 | CL [5]: 8 mL/min/kg; half-life [6]: 162 min; clearance [9]: 4.1 mL/min/kg; clearance [18]: 23 mL/min/kg; fraction unbound [13]: 0.59; Vdu [14]: 2 L/kg; Vd [16]: 0.9 L/kg; bioavailability [19]: 52%; CL [20]: 98 mL/min/kg |
| CCn1ncc(-c2nc3c(NC4CN(C(=O)C5CCOCC5)C4)ncnc3n2C)c1C | 2.77 | > 10 | 0.453 |  |  |  |  |  |  | Ratio IC50 (Homo sapiens): 28 |
| CCn1ncc(-c2nc3c(CC4CCN(C(=O)C5CCOCC5)C4)ncnc3n2C)c1C (racemic) | 8.33 | > 10 | > 10 | 0.294 |  |  |  |  |  |  |
| CC[C@H](Nc1ncnc2c1nc(-c1cnn(CC)c1C)n2C)C(=O)N(C)C | 1.47 | > 10 | 1.07 | 0.034 |  |  |  |  |  |  |
| CCC(=O)N1CC[C@H](Nc2ncnc3c2nc(-c2cnn(CC)c2C)n3C)C1 | 0.024 | 7.25 | 0.094 | 0.0016 | 24 | 1.8 | 4 | 0.49 | 0.8 | IC50 [21]: > 20 µM; IC50 [22]: > 20 µM; IC50 (Phosphodiesterase 4): 8.4 µM; IC50 (Phosphodiesterase 6): > 20 µM; IC50 [23]: > 20 µM; CL [11]: 370 mL/min/kg; IC50 [24]: > 20 µM; IC50 [25]: > 20 µM; IC50 (Phosphodiesterase 1): > 20 µM; IC50 (Phosphodiesterase 3): > 20 µM; IC50 [26]: > 20 µM; IC50 (Phosphodiesterase 7): > 20 µM; clearance [17]: 58 mL/min/kg |
| CCn1ncc(-c2nc3c(N[C@H](C)C(=O)N4CCOCC4)ncnc3n2C)c1C |  | > 10 | > 10 | 1.08 |  |  |  |  |  |  |
| CCC(=O)N1CC(Nc2ncnc3c2nc(-c2cnn(CC)c2C)n3C)C1 | 2.21 | > 10 | 0.904 |  |  |  |  |  |  | Ratio IC50 (Homo sapiens): 16 |
